According to the SangsterLogP compilation:

test: method code SF, from DOI: 10.1111/j.2042-7158.1992.tb14369.x, PMID: 1350635; details: pH 13.0

Row | logD | SMILES
1 | 1.97 | CC(C)(C)NCC(O)COc1ccccc1C#N (configuration not stated)

test: method code SF-AS, from DOI: 10.1111/j.2042-7158.1992.tb14369.x, PMID: 1350635; details: pH 13.0

Row | SMILES | logD
2 | CNC(=O)COc1ccccc1OCC(O)CNC(C)(C)C (configuration not stated) | 1.36
3 | CC(C)NC[C@H](O)COc1ccc(OCCOCCc2ccc(F)cc2)cc1 | 3.7
4 | C#CCOc1ccccc1OCC(O)CNC(C)(C)C (configuration not stated) | 2.32
5 | CC(C)NCC(O)COc1ccc(CCOCC2CC2)cc1 (configuration not stated) | 2.81

The next lines start with the values.

Row | logD | SMILES
6 | 3.07 | CC(C)NCC(O)COc1ccccc1C1CC1 (configuration not stated)
7 | 1.69 | COc1ccccc1OCC(O)CNC(C)C (configuration not stated)
8 | 2.02 | CC(=O)c1cc2cccc(OCC(O)CNC(C)C)c2o1 (configuration not stated)
9 | 0.94 | CC(=O)Nc1ccc(OCC(O)CNC(C)C)c(C(C)=O)c1 (configuration not stated)
10 | 2.3 | Cc1cc2c(OCC(O)CNC(C)C)cccc2[nH]1 (configuration not stated)
11 | 1.87 | CC(C)NCC(O)COc1ccc(COCCOC(C)C)cc1 (configuration not stated)
12 | 4.17 | CC(C)NCC(O)COc1ccccc1C1CC2CCC1C2 (configuration not stated)
